Experimental data from ChEMBL document CHEMBL1150783, “In vitro activities of CG400549, a novel FabI inhibitor, against recently isolated clinical staphylococcal strains in Korea” (2007).
Converted amounts (≈) assume the structure as drawn.

What was measured:
Format in all cases: functional
[1] = test system: Staphylococcus aureus; assay: (§1) Antibacterial activity against methicillin-resistant Staphylococcus aureus isolate assessed as percent resistant isolates by CLSI dilution method
[2] = test system: Staphylococcus aureus; assay: Antibacterial activity against methicillin-susceptible Staphylococcus aureus isolate assessed as […] isolates by CLSI dilution method
[3] = test system: Staphylococcus aureus; assay: as §1; remark: listed apart in the source
[4] = test system: Staphylococcus sp.; assay: (§2) Antibacterial activity against methicillin-susceptible coagulase-negative Staphylococcus sp. assessed as percent susceptible isolates by CLSI dilution method
[5] = test system: Staphylococcus sp.; assay: Antibacterial activity against methicillin-resistant coagulase-negative Staphylococcus sp. assessed as percent resistant isolates by CLSI dilution method
[6] = test system: Staphylococcus sp.; assay: as §2; remark: listed apart in the source
[7] = test system: Staphylococcus sp.; assay: Antibacterial activity against methicillin-susceptible coagulase-negative Staphylococcus sp. assessed as percent resistant isolates by CLSI dilution method
[8] = test system: Staphylococcus aureus; assay: Antibacterial activity against methicillin-resistant Staphylococcus aureus isolate assessed as percent susceptible isolates by CLSI dilution method
[9] = test system: Staphylococcus aureus; assay: Antibacterial activity against methicillin-resistant Staphylococcus aureus by CLSI dilution method
[10] = test system: Staphylococcus aureus; assay: Antibacterial activity against methicillin-susceptible Staphylococcus aureus isolate by CLSI dilution method
[11] = test system: Staphylococcus sp.; assay: Antibacterial activity against methicillin-resistant coagulase-negative Staphylococcus sp. by CLSI dilution method
[12] = test system: Staphylococcus sp.; assay: Antibacterial activity against methicillin-susceptible coagulase-negative Staphylococcus sp. by CLSI dilution method

SMILES | Activity [1] [%] | Activity [2] [%] | Activity [3] [%] | Activity [4] [%] | Activity [5] [%] | Activity [6] [%] | Activity [7] [%] | Activity [8] [%] | MIC50 [9] [µg/mL] | MIC90 [9] [µg/mL] | MIC50 [10] [µg/mL] | MIC90 [10] [µg/mL] | MIC50 [11] [µg/mL] | MIC90 [11] [µg/mL] | MIC50 [12] [µg/mL] | MIC90 [12] [µg/mL]
CCC[C@@H]1C[C@@H](C(=O)N[C@@H]([C@H]2O[C@H](SC)[C@H](O)[C@@H](O)[C@H]2O)[C@H](C)Cl)N(C)C1 [CLINDAMYCIN] | 88 | 100 | 0 | 44 | 54 | 97 | 3 | 12 | > 128 | > 128 | 0.12 (≈ 0.282 µM) | 0.12 (≈ 0.282 µM) | > 128 | > 128 | 0.12 (≈ 0.282 µM) | 0.25 (≈ 0.588 µM)
CN(C)[C@@H]1C(O)=C(C(N)=O)C(=O)[C@@]2(O)C(O)=C3C(=O)c4c(O)cccc4[C@@](C)(O)[C@H]3C[C@@H]12 [TETRACYCLINE] | 75 | 88 | 12 | 67 | 31 | 78 | 22 | 25 | 64 (≈ 144 µM) | 128 (≈ 288 µM) | 1 (≈ 2.25 µM) | 32 (≈ 72 µM) | 2 (≈ 4.5 µM) | 128 (≈ 288 µM) | 0.5 (≈ 1.13 µM) | 64 (≈ 144 µM)
CN[C@H](CC(C)C)C(=O)N[C@H]1C(=O)N[C@@H](CC(N)=O)C(=O)N[C@H]2C(=O)N[C@H]3C(=O)N[C@H](C(=O)N[C@H](C(=O)O)c4cc(O)cc(O)c4-c4cc3ccc4O)[C@H](O)c3ccc(c(Cl)c3)Oc3cc2cc(c3O[C@@H]2O[C@H](CO)[C@@H](O)[C@H](O)[C@H]2O[C@H]2C[C@](C)(N)[C@H](O)[C@H](C)O2)Oc2ccc(cc2Cl)[C@H]1O [VANCOMYCIN] | 0 | 100 | 0 | 99 | 0 | 100 | 0 | 100 | 1 (≈ 0.69 µM) | 1 (≈ 0.69 µM) | 1 (≈ 0.69 µM) | 1 (≈ 0.69 µM) | 1 (≈ 0.69 µM) | 2 (≈ 1.38 µM) | 1 (≈ 0.69 µM) | 2 (≈ 1.38 µM)
CC[C@H]1OC(=O)[C@H](C)[C@@H](O[C@H]2C[C@@](C)(OC)[C@@H](O)[C@H](C)O2)[C@H](C)[C@@H](O[C@@H]2O[C@H](C)C[C@H](N(C)C)[C@H]2O)[C@](C)(O)C[C@@H](C)C(=O)[C@H](C)[C@@H](O)[C@]1(C)O [ERYTHROMYCIN] | 95 | 88 | 12 | 20 | 80 | 78 | 17 | 5 | > 128 |  | 0.5 (≈ 0.681 µM) | > 128 | 128 (≈ 174 µM) | > 128 | 0.25 (≈ 0.341 µM) | 128 (≈ 174 µM)
